Patent US8003686B2, “Aryl derivatives of curcumin, demethoxycurcumin, bisdemethoxycurcumin or curcuminisoxazolide and their use as animal feed additives” (DSM IP Assets B.V., priority 2005, dated 2011)

Tests used:
Assay in all cases: Inhibition of bacterial growth in broth culture, CFU counting
Assay type in all cases: cell-based
[1] = test system: Salmonella typhimurium pF3127 (D); details: 1000 μM; Salmonella typhimurium pF3127 from pig gastrointestinal content; counting after 24 hours at 37° C.
Text: (§1) The following bacteria were isolated from pig gastrointestinal content: Escherichia coli 0.94 (A), Escherichia coli 0.96 (B), Klebsiella pneumoniae (C), Salmonella typhimurium pF3127 (D), Salmonella enteritidis pF1338 (E), Enterococcus faecalis (F), Enterococcus faecium (G), Staphylococcus hyicus (H), Lactobacillus salivarius (I) and Lactobacillus acidophilus 3 (J). Their identities were confirmed by microscopic examination after gram staining and biochemical testing using the appropriate API system. Test strains were maintained in tryptic soy broth (named BTS; […] Overnight cultures of the test organisms were diluted in tryptic soy broth to the final concentration used for inoculation of the assay. Pure bacteria were counted on tryptic soy agar (Merck, Darmstadt, Germany) after aerobical incubation at 37° C. during 24 hours. […] Sterilized nutrient broth was prepared using tryptic soy broth (Merck, Darmstadt, Germany), and 4.4 ml of it was added to each test tube. 500 μl of each of the dilutions and 100 μl of bacteria, diluted to the appropriate inoculum size (2×10^4 to 10^5 CFU/ml), was added to the test tubes. […] Becton […], France). The final concentration of each derivative was […]. The tubes and the microtiter plates were incubated during 24 to 48 hours (depending of the bacteria tested) at 37° C. and under agitation. Inhibition of growth was determined by bacterial counting after 24 hours of incubation. […] All bacterial counts were realized with two replicate plates. In general, each assay was performed in two replicates. The reduction of bacterial growth was determined by subtracting the number of the bacteria of the test culture after 24 hours from the number of bacteria of the control culture. The colonies developed after incubation were counted, and the inhibitory effect was calculated according to Rico-Munoz and Davidson, J.

[2] = test system: Salmonella enteritidis pF1338 (E); details: 1000 μM; Salmonella enteritidis pF1338 from pig gastrointestinal content; counting after 24 hours at 37° C.
Text: as §1

[3] = test system: Klebsiella pneumoniae (C); details: 1000 μM; Klebsiella pneumoniae from pig gastrointestinal content; counting after 24 hours at 37° C.
Text: as §1

Enterococcus faecium (G) = details: 1000 μM; Enterococcus faecium from pig gastrointestinal content; counting after 24 hours at 37° C.
Text: as §1

[4] = test system: Escherichia coli 0.94 (A); details: 1000 μM; Escherichia coli 0.94 from pig gastrointestinal content; counting after 24 hours at 37° C.
Text: as §1

[5] = test system: Lactobacillus salivarius (I); details: 1000 μM; Lactobacillus salivarius from pig gastrointestinal content; counting after 24 hours at 37° C.
Text: as §1

[6] = test system: Staphylococcus hyicus (H); details: 1000 μM; Staphylococcus hyicus from pig gastrointestinal content; counting after 24 hours at 37° C.
Text: as §1

[7] = test system: Escherichia coli 0.96 (B); details: 1000 μM; Escherichia coli 0.96 from pig gastrointestinal content; counting after 24 hours at 37° C.
Text: as §1

[8] = test system: Enterococcus faecalis (F); details: 1000 μM; Enterococcus faecalis from pig gastrointestinal content; counting after 24 hours at 37° C.
Text: as §1

Substance | Percentage of inhibition of growth of bacterial strain D [1] [%] | Percentage of inhibition of growth of bacterial strain E [2] [%] | Percentage of inhibition of growth of bacterial strain C [3] [%] | Percentage of inhibition of growth of bacterial strain G (Enterococcus faecium (G)) [%] | Percentage of inhibition of growth of bacterial strain A [4] [%] | Percentage of inhibition of growth of bacterial strain I [5] [%] | Percentage of inhibition of growth of bacterial strain H [6] [%] | Percentage of inhibition of growth of bacterial strain B [7] [%] | Percentage of inhibition of growth of bacterial strain F [8] [%]
Curcumin diphosphate ammonium salt [derivative 2] | 40 ± 72 | 30 ± 34 | 25 ± 5 | 13 ± 6 | 35 ± 41 | 64 ± 50 | 2 ± 7 | 47 ± 28 | –
curcumindipalmitate [Example 1] | 33 ± 29 | 14 ± 13 | 12 ± 4 | – | 62 ± 0.3 | 2 | −4 ± 42 | 59 ± 17 | 38 ± 34
